# Measurements as given in patent publication US9233143B2, “Medicinal agent for preventing exacerbation of malignant tumor, comprising combination of natriuretic peptide receptor GC-A and GC-B agonists” (National Cerebral and Cardiovascular Center, priority 2011, dated 2016).
# Experiments:
# CAFs = assay: Production of cancer exacerbation factors by CAFs under TGF-β1 stimulus (quantitative RT-PCR); assay type: cell-based, human; details: test substance 1 μM, TGF-β1 0.125-2.0 ng/mL, 24 hours, mRNA level, FIG. 5
# Description: Using a 6-well dish, the CAFs were cultured at 5×10^4 cells/well, and the culture medium was replaced with DMEM culture medium containing 1% FBS the next day. After 24 hours of culture, the cells were used in the following experiment.
# A CNP group (a hCNP-22 solution was added (final concentration: 1 μM)) and a control group (the same amount of physiological saline was added) were prepared, and after 2 hours from the addition (of the hCNP-22 solution or the physiological saline) to the CAFs, TGF-β1 was added so that the final concentration would be 0.125, 0.25, 0.5, 1.0, and 2.0 ng/mL. After 24 hours had passed, total RNA was recovered using TRIZOL total RNA isolation reagent, cDNA was synthesized using reverse transcriptase, and the mRNA levels of VEGF-A, TGF-β1, TNF-α, and IL-6 were measured by quantitative RT-PCR.
# tumor cells = details: reports by Vesely et al.; cited from earlier work
# A549 cells = assay: Changes in the intracellular cGMP level in response to natriuretic peptide stimulus, A549 cells; assay type: cell-based, human; details: 1×10^−11 M to 1×10^−6 M, 10 minutes, FIG. 1A
# Description: Lung adenocarcinoma cell line, A549 cells, was obtained from ATCC (Manassas, Va.). The cells were cultured in DMEM culture medium (Invitrogen, Carlsbad, Va.) containing 10% FCS under 5% CO2 at 37° C. The amounts of the culture medium were 1.5 mL for each well of a 6-well dish, 400 μL for each well of a 24-well dish, and 150 μL for each well of a 96-well dish. In the Examples below, unless otherwise stated, the same culture medium and culture conditions were adopted.
# The A549 cells were cultured in a 24-well dish at 4×10^4 cells/well, and the culture medium was replaced with DMEM culture medium free from FCS the next day. The CAFs were cultured in a 24-well dish at 1×10^4 cells/well, and the culture medium was replaced with DMEM culture medium containing 1% FCS the next day.
# To these culture media, solutions of hANP, hBNP, and hCNP-22 (final concentration: ten-fold serial dilution from 1×10^−11 M to 1×10^−6 M, the same amount of physiological saline was used as a control) were separately added. After 10 minutes had passed, 400 μL of cooled 70% ethanol (containing 0.1 N hydrochloric acid) was added, and ultrasonication was performed for a short time. The treated solution was lyophilized, and the cGMP level was measured using Cyclic GMP Assay kit (made by Yamasa Corp.).
smiles,measurement,setting,value
CC[C@H](C)[C@@H]1NC(=O)[C@H](CCCNC(=N)N)NC(=O)[C@H](CC(=O)O)NC(=O)[C@H](CCSC)NC(=O)[C@H](CCCNC(=N)N)NC(=O)CNC(=O)CNC(=O)[C@H](Cc2ccccc2)NC(=O)[C@@H](NC(=O)[C@H](CO)NC(=O)[C@H](CO)NC(=O)[C@H](CCCNC(=N)N)NC(=O)[C@H](CCCNC(=N)N)NC(=O)[C@H](CC(C)C)NC(=O)[C@@H](N)CO)CSSC[C@@H](C(=O)N[C@@H](CC(N)=O)C(=O)N[C@@H](CO)C(=O)N[C@@H](Cc2ccccc2)C(=O)N[C@@H](CCCNC(=N)N)C(=O)N[C@@H](Cc2ccc(O)cc2)C(=O)O)NC(=O)CNC(=O)[C@H](CC(C)C)NC(=O)CNC(=O)[C@H](CO)NC(=O)[C@H](CCC(N)=O)NC(=O)[C@H](C)NC(=O)CNC1=O [hANP],"gene expression of the growth factors (VEGF-A, TGF-β1) and the inflammatory cytokines (TNF-α, IL-6) increased by the TGF-β1 stimulus in CAFs",CAFs,did not show any effect on CAFs
same,growth-suppressing activity on tumor (cancer) cells,tumor cells,growth-suppressing effect
same,intracellular cGMP level of the A549 cells,A549 cells,increased the intracellular cGMP level of the A549 cells in a concentration-dependent manner
